Assay results from publication PMC9645260, “Small-molecule inhibitors of P-Rex guanine-nucleotide exchange factors” (Small GTPases, 2022).

Target: T1, Ect2 (DHPH) (Homo sapiens, UniProt Q9H8V3)
T1 construct: The ITSN1 DHPH domains and Ect2 DHPH domains, produced in and purified from bacteria; host or cells: bacteria
T1 sequence (Q9H8V3 452-794 limits assumed): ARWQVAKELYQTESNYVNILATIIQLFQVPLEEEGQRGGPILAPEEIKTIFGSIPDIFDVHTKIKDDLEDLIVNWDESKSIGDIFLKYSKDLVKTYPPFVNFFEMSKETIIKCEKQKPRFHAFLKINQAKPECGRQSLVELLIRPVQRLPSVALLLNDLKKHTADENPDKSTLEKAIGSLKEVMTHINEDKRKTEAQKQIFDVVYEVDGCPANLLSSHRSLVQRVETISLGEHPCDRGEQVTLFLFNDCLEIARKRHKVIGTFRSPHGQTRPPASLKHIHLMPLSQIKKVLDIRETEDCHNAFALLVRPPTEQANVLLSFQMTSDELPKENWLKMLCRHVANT
Test: Liposome-based GEF activity assay, Ect2
Format: biochemical
Conditions: 10 µM, 500 nM ECT2 DHPH
Description: Full-length N-terminally EE-tagged P-Rex1, P-Rex2, the P-Rex1 DH and DHPH domains and the P-Rex2 DH domain were produced in Sf9 cells using baculoviral transduction and were purified using anti-EE beads, as previously described. Briefly, frozen pellets from 500 ml of Sf9 culture infected with P-Rex expressing high-titre baculovirus were resuspended in ice-cold lysis Sf9-cell lysis buffer 2 (1x PBS, 1% Triton X-100, 5 mM EGTA, 1 mM EDTA, 25 mM NaF, 20 mM β-glycerophosphate, 1 mM DTT, 100 µM PMSF, 10 μg/ml each of leupeptin, pepstatin A, aprotinin and antipain) for 5 min and then ultracentrifuged at 118,000 × g for 1 h at 4°C. Supernatants were incubated with pre-washed anti-EE beads for 90 min on ice with end-over-end rotation. […] Protein concentration and purity were determined by coomassie staining of SDS-PAGE gels. […]
Liposome-based GEF activity assays were carried out essentially as described, except that GEFs were incubated with inhibitor compounds prior to the assay. […] Small GTPases were isolated using anti-EE antibody-coupled Sepharose beads or glutathione Sepharose beads, as appropriate, by incubation on ice for 90 min with end-over-end rotation, four washes in ice-cold wash buffer and resuspension of beads in Ultima Gold scintillation fluid (Perkin Elmer). ^35S-GTPγS incorporation was assessed by scintillation counting (Packard 1600TR, Liquid Scintillation Analyser).

**Q.** Which “effect on GEF activity of Ect2” value does the source give for `COc1ccc(-c2[nH]nc3c2C(c2ccc(-c4ccc(Cl)cc4)o2)C(C#N)=C(N)O3)cc1` (stereo not shown) [PREX-in1, 6-amino-4-[5-(4-chlorophenyl)-2-furyl]-3-(4-methoxyphenyl)-2,4-dihydropyrano[2,3-c]pyrazole-5-carbonitrile] here?
**A.** The value was “none of the other GEFs were affected”.
